Measured values published in ChEMBL document CHEMBL1201862, “PubChem BioAssay data set” (2004).
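Method: 48-hour compound exposure of cells in 96-well plates, five concentrations, linear interpolation of endpoints. GI50: concentration for 50% inhibition of growth.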 Activity calls are given as the source filed them. Rule as the data show it: active = GI50 up to about 1.1 µM and inactive = higher.

Legend:
Experiment in all cases: growth of human tumour cells (NCI), 48 h
ACHN = test system: ACHN
BT-549 = test system: BT-549
CAKI-1 = test system: CAKI-1
CCRF-CEM = test system: CCRF-CEM
EKVX = test system: EKVX
HCT-116 = test system: HCT-116
HOP-92 = test system: HOP-92
IGROV-1 = test system: IGROV-1
NCI-H460 = test system: NCI-H460
NCI/ADR-RES = test system: NCI/ADR-RES
OVCAR-5 = test system: OVCAR-5
OVCAR-8 = test system: OVCAR-8
RXF 393 = test system: RXF 393
SK-OV-3 = test system: SK-OV-3
TK-10 = test system: TK-10
UACC-62 = test system: UACC-62
COLO 205 = test system: COLO 205
Malme-3M = test system: Malme-3M
NCI-H23 = test system: NCI-H23

Measured: GI50

Cc1c(C#N)c2ccccc2c2nc3ccccc3n12
inactive: ACHN 64.1 µM | BT-549 > 100 µM | CAKI-1 67.9 µM | CCRF-CEM > 100 µM | EKVX > 100 µM | HCT-116 24.9 µM | HOP-92 > 100 µM | IGROV-1 31.9 µM | NCI-H460 27.7 µM | NCI/ADR-RES > 100 µM | OVCAR-5 > 100 µM | OVCAR-8 > 100 µM | RXF 393 > 100 µM | SK-OV-3 98.9 µM | TK-10 > 100 µM | UACC-62 > 100 µM

CCOC(=O)c1c(C)nc2c3ccccc3c(C#N)c(C)n12
inactive: ACHN 57.5 µM | BT-549 > 100 µM | CAKI-1 79.3 µM | CCRF-CEM > 100 µM | EKVX 6.65 µM | HCT-116 37.2 µM | HOP-92 58.7 µM | IGROV-1 23 µM | NCI-H460 49.4 µM | NCI/ADR-RES 80.4 µM | OVCAR-5 88.7 µM | OVCAR-8 49.1 µM | RXF 393 33.4 µM | SK-OV-3 21.2 µM | TK-10 > 100 µM | UACC-62 > 100 µM

Cc1ccc(-c2n[nH]c(=O)n2N)cc1
inactive: ACHN > 100 µM | BT-549 > 100 µM | CAKI-1 > 100 µM | CCRF-CEM > 100 µM | COLO 205 > 100 µM | EKVX > 100 µM | HCT-116 > 100 µM | HOP-92 > 100 µM | IGROV-1 > 100 µM | Malme-3M > 100 µM | NCI-H23 > 100 µM | NCI-H460 > 100 µM | NCI/ADR-RES > 100 µM | OVCAR-5 > 100 µM | OVCAR-8 > 100 µM | SK-OV-3 > 100 µM | TK-10 > 100 µM | UACC-62 > 100 µM

C=C(C)[C@H]1C2=CC(C)=C(O2)[C@@H](O[C@@H]2c3oc(cc3C)[C@H](C(=C)C)[C@H]3C=C(CC[C@H]2C(=C)C)C(=O)O3)[C@H](C(=C)C)CCC2=C[C@H]1OC2=O
inactive: ACHN > 100 µM | BT-549 > 100 µM | CAKI-1 > 100 µM | CCRF-CEM > 100 µM | COLO 205 > 100 µM | EKVX > 100 µM | HCT-116 > 100 µM | HOP-92 > 100 µM | IGROV-1 > 100 µM | Malme-3M > 100 µM | NCI-H23 > 100 µM | NCI-H460 > 100 µM | NCI/ADR-RES > 100 µM | OVCAR-5 > 100 µM | OVCAR-8 > 100 µM | SK-OV-3 > 100 µM | TK-10 > 100 µM | UACC-62 > 100 µM

O=c1[nH]c(N/N=C\C(O)C(O)C(O)C(O)CO)nc2ccccc12 (stereo not drawn)
inactive: ACHN > 100 µM | BT-549 > 100 µM | CAKI-1 > 100 µM | CCRF-CEM > 100 µM | COLO 205 > 100 µM | EKVX > 100 µM | HCT-116 > 100 µM | HOP-92 > 100 µM | IGROV-1 > 100 µM | NCI-H23 > 100 µM | NCI-H460 > 100 µM | NCI/ADR-RES > 100 µM | OVCAR-5 > 100 µM | OVCAR-8 > 100 µM | SK-OV-3 > 100 µM | TK-10 > 100 µM | UACC-62 > 100 µM

COc1cc(C(c2ccc3c(c2)OCO3)N2C(=O)CCC2C(=O)O)cc(OC)c1OC (stereo not drawn)
inactive: ACHN > 100 µM | BT-549 > 100 µM | CAKI-1 > 100 µM | CCRF-CEM > 100 µM | COLO 205 > 100 µM | EKVX > 100 µM | HCT-116 > 100 µM | HOP-92 > 100 µM | IGROV-1 > 100 µM | Malme-3M > 100 µM | NCI-H23 > 100 µM | NCI-H460 > 100 µM | NCI/ADR-RES > 100 µM | OVCAR-5 > 100 µM | OVCAR-8 > 100 µM | SK-OV-3 > 100 µM | TK-10 > 100 µM | UACC-62 > 100 µM

CNC(=O)C(NC(=O)[C@H](CC(C)C)NC(=O)[C@@H](S)CCN1C(=O)N(C)C(C)(C)C1=O)C(C)(C)C (stereo partly drawn)
inactive: ACHN > 100 µM | BT-549 > 100 µM | CAKI-1 > 100 µM | EKVX > 100 µM | HCT-116 > 100 µM | HOP-92 > 100 µM | IGROV-1 > 100 µM | Malme-3M > 100 µM | NCI-H23 > 100 µM | NCI-H460 > 100 µM | NCI/ADR-RES > 100 µM | OVCAR-5 > 100 µM | OVCAR-8 > 100 µM | RXF 393 > 100 µM | SK-OV-3 > 100 µM | TK-10 > 100 µM | UACC-62 > 100 µM

Cn1c(S)nnc1CNc1ccc(-c2nnc(S)n2C)cc1
inactive: ACHN > 100 µM | BT-549 > 100 µM | CAKI-1 > 100 µM | CCRF-CEM > 100 µM | COLO 205 > 100 µM | EKVX > 100 µM | HCT-116 > 100 µM | HOP-92 > 100 µM | IGROV-1 > 100 µM | Malme-3M > 100 µM | NCI-H23 > 100 µM | NCI-H460 > 100 µM | NCI/ADR-RES > 100 µM | OVCAR-5 > 100 µM | OVCAR-8 > 100 µM | SK-OV-3 > 100 µM | TK-10 > 100 µM

CN(/N=C/c1ccc(Cl)c(Cl)c1)C1=NCCN1
inactive: ACHN 31.9 µM | BT-549 28.3 µM | CAKI-1 17.3 µM | CCRF-CEM 16.7 µM | COLO 205 17.7 µM | EKVX 59 µM | HCT-116 17.9 µM | HOP-92 21.7 µM | IGROV-1 27.1 µM | Malme-3M 18.8 µM | NCI-H23 56 µM | NCI-H460 40.8 µM | NCI/ADR-RES 37.6 µM | OVCAR-5 > 100 µM | OVCAR-8 40.3 µM | SK-OV-3 22.4 µM | TK-10 46.2 µM | UACC-62 18.6 µM

N/C(=N\c1ccc(Cl)cc1)NS(=O)(=O)c1cccc2nsnc12
inactive: ACHN 30.3 µM | BT-549 25.2 µM | EKVX 19.7 µM | HCT-116 31.8 µM | HOP-92 16.1 µM | IGROV-1 23.7 µM | Malme-3M 18 µM | NCI-H23 34.7 µM | NCI-H460 19.1 µM | NCI/ADR-RES 31.3 µM | OVCAR-5 55.7 µM | OVCAR-8 27.6 µM | RXF 393 > 100 µM | SK-OV-3 74.8 µM | TK-10 22.3 µM | UACC-62 17 µM

C#CCOC(=O)c1ccccc1O
inactive: ACHN > 100 µM | BT-549 > 100 µM | CAKI-1 > 100 µM | CCRF-CEM > 100 µM | COLO 205 > 100 µM | EKVX > 100 µM | HCT-116 > 100 µM | HOP-92 > 100 µM | IGROV-1 > 100 µM | NCI-H23 > 100 µM | NCI-H460 > 100 µM | NCI/ADR-RES > 100 µM | OVCAR-5 > 100 µM | OVCAR-8 > 100 µM | RXF 393 > 100 µM | SK-OV-3 > 100 µM | TK-10 > 100 µM | UACC-62 > 100 µM

O=C(Cc1ccccc1)NNc1nc(NNC(=O)c2ccncc2)nc(Nc2ccc(Cl)cc2)n1
inactive: BT-549 > 10 µM | CAKI-1 > 10 µM | CCRF-CEM > 10 µM | COLO 205 > 10 µM | EKVX > 10 µM | HOP-92 > 10 µM | IGROV-1 > 10 µM | Malme-3M > 10 µM | NCI-H23 > 10 µM | NCI/ADR-RES 5.85 µM | OVCAR-8 > 10 µM | SK-OV-3 > 10 µM | TK-10 > 10 µM | UACC-62 9.68 µM
